Results taken from patent US20260124222A1, “ISOTHIAZOLYLCARBOXAMIDE COMPOUNDS AND THEIR USE IN THERAPY” (HOTSPOT THERAPEUTICS, INC., priority 2022, published 2026).

Molecular target: T1, Avi-tagged FL MALT-1 (Homo sapiens, UniProt Q9UDY8)
T1 construct: Avi-tagged FL MALT-1 (Pharmaron, stored at −70° C.); Avi-tag; purchased Pharmaron
T1 sequence (Q9UDY8 1-824): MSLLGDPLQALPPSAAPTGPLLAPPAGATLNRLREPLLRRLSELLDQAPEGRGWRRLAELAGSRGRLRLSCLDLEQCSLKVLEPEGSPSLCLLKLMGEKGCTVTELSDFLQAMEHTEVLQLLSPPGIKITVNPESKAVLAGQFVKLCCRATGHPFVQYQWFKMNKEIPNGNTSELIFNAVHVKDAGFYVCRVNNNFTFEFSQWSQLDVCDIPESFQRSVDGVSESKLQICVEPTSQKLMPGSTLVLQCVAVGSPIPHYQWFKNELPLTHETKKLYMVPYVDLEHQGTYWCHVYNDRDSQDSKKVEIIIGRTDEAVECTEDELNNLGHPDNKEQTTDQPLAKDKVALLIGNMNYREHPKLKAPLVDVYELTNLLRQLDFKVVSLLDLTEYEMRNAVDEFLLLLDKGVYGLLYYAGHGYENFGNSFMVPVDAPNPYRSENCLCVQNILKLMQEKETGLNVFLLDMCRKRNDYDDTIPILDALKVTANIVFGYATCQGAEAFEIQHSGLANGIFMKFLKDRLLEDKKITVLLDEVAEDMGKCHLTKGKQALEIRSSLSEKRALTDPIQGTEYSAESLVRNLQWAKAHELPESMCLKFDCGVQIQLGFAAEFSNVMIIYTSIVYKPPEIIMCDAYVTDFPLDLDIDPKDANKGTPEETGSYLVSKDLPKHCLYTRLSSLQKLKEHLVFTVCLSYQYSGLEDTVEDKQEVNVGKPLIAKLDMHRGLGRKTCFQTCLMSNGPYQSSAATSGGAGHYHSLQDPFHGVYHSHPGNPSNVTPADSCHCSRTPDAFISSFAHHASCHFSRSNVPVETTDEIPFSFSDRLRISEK
Test: MALT-1 Fluorogenic Peptide Cleavage Assay (MALT1 inhibition assay)
Format: biochemical
Details: Ac-LRSR-AMC peptide substrate; 30 min pre-incubation, 90 min reaction at room temperature; fluorescence
Method: Inhibition of MALT1 activity by a small molecule was evaluated using MALT-1 Fluorogenic Peptide Cleavage Assay. The assay utilizes a quenched AMC-labelled peptide that contains the MALT-1 recognition sequence and cleavage site (LRSR). MALT-1 mediated cleavage of the peptide relieves the quenching and leads to an increase in fluorescence at excitation (342 nm) and emission (441 nm).
The following reagents were obtained commercially and used to prepare standard reagent formulations as further described below: N-2-hydroxyethylpiperazine-N-2-ethane sulfonic acid (HEPES) (1 M, pH 7.5, stored at 4° C.), sodium citrate (stored at RT), tris(2-carboxyethyl)phosphine hydrochloride (T-CEP) (500 mM, stored at −20° C.), ethylenediaminetetraacetic acid (EDTA) (500 mM, stored at RT), dimethylsulfoxide (DMSO, stored at RT), 3-[(3-cholamidopropyl)dimethylammonio]-1-propane sulphate (CHAPS) (stored at RT), dimethylsulfoxide (DMSO), DMSO (Fisher Scientific, stored at RT), Avi-tagged FL MALT-1 (Pharmaron, stored at −70° C.), Ac-LRSR-AMC Peptide (SM Biochemicals, stored at −20° C.), and ultrapure water (MILLI-Q®).
The standard reagent formulations used in this assay were prepared and stored as follows. A 1.1 M solution of sodium citrate (161.3 g, 500 mL) was prepared and stored at room temperature. A 10% (w/v) CHAPS solution (2.0 g, 20 mL) was prepared and stored at 4° C. A 500 mM HEPES solution having pH of 6.89 was prepared from 200 mL of a 1 M HEPES solution having a pH of 7.5 using concentrated hydrochloric acid and brought to a final volume of 400 mL with MILLI-Q© H2O. The substrate, 10 mM Ac-LRSR-AMC Peptide, was prepared (10 mg, 1.370 mL DMSO) and stored at −20° C.
Compounds were plated to provide a 2% DMSO final concentration using a ProxiPlate-384 Plus F Black 384-shallow well microplate. The assay-ready plates were equilibrated to room temperature. A reaction buffer (30 mL total volume) was prepared by combining HEPES (pH 6.89, 25 mM, 1.5 mL), sodium citrate (660 mM, 18.0 mL), T-CEP (1 mM, 0.06 mL), EDTA (0.1 mM, 0.06 mL), CHAPS (0.05%, 0.15 mL), DMSO (2%, 0.6 mL), and MILLI-Q® H2O (10.23 mL; 9.63 mL when backfilled to 2% DMSO) followed by thorough mixing.
MALT-1 was thawed and kept on ice. Peptide substrate was thawed on the bench under ambient conditions. A MALT-1 enzyme working stock was prepared from Avi-tagged FL MALT-1 (40 nM in a prepared reagent volume of […]) and the reaction buffer (13.0 mL). MALT1 working stock (5 μL) was added to each well of the microplate. MALT-1 was pre-incubated with compounds for 30 minutes at room temperature.
Two substrate working stocks (Km and 10×Km) were prepared. The 1×Km substrate was prepared from Ac-LRSR-AMC Peptide (50 μM in a prepared reagent volume of […]) and the reaction buffer (6.965 mL). The 10×Km substrate was prepared from Ac-LRSR-AMC Peptide ([…] in a prepared reagent volume of 196.0 μL) and the reaction buffer (6.804 mL). The reaction was initiated by the addition of substrate working stock (5 μL, 50 μM) to Km plates and the addition of substrate working stock (5 μL 280 μM) to 10×Km plates. The plates were covered and incubated on the bench at room temperature for 90 minutes.
Fluorescence intensity was determined using a CLARIOstar microplate reader (BMG LABTECH) using the optimised AMC mode. Before taking readings, a 70% gain was applied on the neutral control well. Compound data were normalised to % Inhibition and used to plot sigmoidal concentration response curves to yield various parameters including IC50.

SMILES | IC50
Cc1ncccc1-c1nsc(C(=O)Nc2ccnc(C(F)(F)F)c2)c1C1CC1 [I-171, 4-cyclopropyl-3-(2-methylpyridin-3-yl)-N-[2-(trifluoromethyl)pyridin-4-yl]-1,2-thiazole-5-carboxamide] | ≤ 400 nM
CC(=O)N1CCC(c2nsc(C(=O)Nc3cnc(-n4nccn4)c(C#N)c3)c2C2CC2)CC1 [I-121] | 1000 to 2500 nM
N#Cc1cc(NC(=O)c2snc(-c3ccccc3)c2C(F)(F)F)cnc1-n1nccn1 [I-8, N-(5-CYANO-6-(2H-1,2,3-TRIAZOL-2-YL)PYRIDIN-3-YL)-3-PHENYL-4-(TRIFLUOROMETHYL)ISOTHIAZOLE-5-CARBOXAMIDE] | ≤ 400 nM
O=C(Nc1cnc(C(=O)N2CC(O)C2)c(Cl)c1)c1snc(-c2ccccc2)c1C1CC1 [I-58, N-(5-CHLORO-6-(3-HYDROXYAZETIDINE-1-CARBONYL)PYRIDIN-3-YL)-4-CYCLOPROPYL-3-PHENYLISOTHIAZOLE-5-CARBOXAMIDE] | ≤ 400 nM
N#Cc1cc(NC(=O)c2snc(-c3ncccc3Cl)c2C2CC2)cnc1-n1nccn1 [I-28, 3-(3-CHLOROPYRIDIN-2-YL)-N-(5-CYANO-6-(2H-1,2,3-TRIAZOL-2-YL)PYRIDIN-3-YL)-4-CYCLOPROPYLISOTHIAZOLE-5-CARBOXAMIDE] | ≤ 400 nM
Cn1nc2cccc(-c3nsc(C(=O)Nc4cnc(-n5nccn5)c(C#N)c4)c3C3CC3)c2n1 [I-126] | ≤ 400 nM
CC(C)c1nsc(C(=O)Nc2cnc(-n3nccn3)c(C#N)c2)c1C(F)(F)F [I-38, N-(5-CYANO-6-(2H-1,2,3-TRIAZOL-2-YL) PYRIDIN-3-YL)-3-ISOPROPYL-4-(TRIFLUOROMETHYL)ISOTHIAZOLE-5-CARBOXAMIDE] | ≤ 400 nM
O=C(Nc1cnc(-n2nccn2)c(Cl)c1)c1snc(-c2cccc3ncccc23)c1C1CC1 [I-118] | ≤ 400 nM
O=C(Nc1cnc(-n2nccn2)c(Cl)c1)c1snc(-c2cccc3ncccc23)c1C(F)(F)F [I-35, N-(5-CHLORO-6-(2H-1,2,3-TRIAZOL-2-YL) PYRIDIN-3-YL)-3-(QUINOLIN-5-YL)-4-(TRIFLUOROMETHYL)ISOTHIAZOLE-5-CARBOXAMIDE] | ≤ 400 nM
CN(C)C(=O)c1ncc(NC(=O)c2snc(-c3ccccc3)c2C2CC2)cc1Cl [I-50, N-(5-CHLORO-6-(DIMETHYLCARBAMOYL) PYRIDIN-3-YL)-4-CYCLOPROPYL-3-PHENYLISOTHIAZOLE-5-CARBOXAMIDE] | ≤ 400 nM
Cn1ccc2cc(NC(=O)c3snc(-c4ccccc4)c3C3CC3)ccc2c1=O [I-98] | > 2500 nM
CN1CC=C(c2nsc(C(=O)Nc3cnc(-n4nccn4)c(C#N)c3)c2C2CC2)CC1 [I-134, N-(5-cyano-6-(2H-1,2,3-triazol-2-yl)pyridin-3-yl)-4-cyclopropyl-3-(1-methyl-1,2,3,6-tetrahydropyridin-4-yl)isothiazole-5-carboxamide] | > 2500 nM
O=C(Nc1ccnc(C(F)(F)F)c1)c1snc(-c2ccc3[nH]ncc3c2)c1C1CC1 [I-166, 4-cyclopropyl-3-(1H-indazol-5-yl)-N-(2-(trifluoromethyl)pyridin-4-yl)isothiazole-5-carboxamide] | ≤ 400 nM
CC(C)c1nsc(C(=O)Nc2cnc(-n3nccn3)c(C#N)c2)c1C1CC1 [I-56, N-(5-CYANO-6-(2H-1,2,3-TRIAZOL-2-YL) PYRIDIN-3-YL)-4-CYCLOPROPYL-3-ISOPROPYLISOTHIAZOLE-5-CARBOXAMIDE] | ≤ 400 nM
O=C(Nc1ccc(C(=O)N2CCOCC2)c(Cl)c1)c1snc(-c2ccccc2)c1C1CC1 [I-22, N-(3-CHLORO-4-(MORPHOLINE-4-CARBONYL) PHENYL)-4-CYCLOPROPYL-3-PHENYLISOTHIAZOLE-5-CARBOXAMIDE] | ≤ 400 nM
COc1ccncc1-c1nsc(C(=O)Nc2ccnc(C(F)(F)F)c2)c1C1CC1 [I-170, 4-cyclopropyl-3-(4-methoxypyridin-3-yl)-N-(2-(trifluoromethyl)pyridin-4-yl)isothiazole-5-carboxamide] | ≤ 400 nM
CN(C)c1nsc(C(=O)Nc2ccnc(C(F)(F)F)c2)c1C1CC1 [I-125] | > 2500 nM

Further lines, results first:

IC50 | SMILES
> 2500 nM | Cn1cc2c(-c3nsc(C(=O)Nc4cc(C(F)(F)F)ccn4)c3C3CC3)cccc2n1 [I-209, 4-cyclopropyl-3-(2-methylindazol-4-yl)-N-[4-(trifluoromethyl)pyridine-2-yl]-1,2-thiazole-5-carboxamide]
≤ 400 nM | O=C(Nc1ccnc(C(F)(F)F)c1)c1snc(-c2cccc3[nH]ncc23)c1C1CC1 [I-182, 4-cyclopropyl-3-(1H-indazol-4-yl)-N-(2-(trifluoromethyl)pyridin-4-yl)isothiazole-5-carboxamide]
≤ 400 nM | Cc1ccncc1-c1nsc(C(=O)Nc2ccnc(C(F)(F)F)c2)c1C1CC1 [I-173, 4-cyclopropyl-3-(4-methylpyridin-3-yl)-N-(2-(trifluoromethyl)pyridin-4-yl)isothiazole-5-carboxamide]
≤ 400 nM | Cc1cc(NC(=O)c2snc(-c3cccc4c(=O)[nH]ccc34)c2C2CC2)ccn1 [I-200, 4-cyclopropyl-N-(2-methylpyridin-4-yl)-3-(1-oxo-1,2-dihydroisoquinolin-5-yl)isothiazole-5-carboxamide]
1000 to 2500 nM | O=C(Nc1ccnc(C(F)(F)F)c1)c1snc(-c2ccn3ccnc3c2)c1C1CC1 [I-185, 4-cyclopropyl-3-(imidazo[1,2-a]pyridin-7-yl)-N-(2-(trifluoromethyl)pyridin-4-yl)isothiazole-5-carboxamide]
> 2500 nM | Cc1cc(NC(=O)c2snc([C@H]3CCOC3)c2C2CC2)ccn1 [I-202, 4-cyclopropyl-N-(2-methylpyridin-4-yl)-3-[(3R)-oxolan-3-yl]-1,2-thiazole-5-carboxamide]
≤ 400 nM | Cc1cc(-c2nsc(C(=O)Nc3ccnc(C(F)(F)F)c3)c2C2CC2)ccn1 [I-191, 4-cyclopropyl-3-(2-methylpyridin-4-yl)-N-(2-(trifluoromethyl)pyridin-4-yl)isothiazole-5-carboxamide]
≤ 400 nM | O=C(Nc1ccnc(C(F)(F)F)c1)c1snc(-c2cnccc2F)c1C1CC1 [I-192, 4-cyclopropyl-3-(4-fluoropyridin-3-yl)-N-(2-(trifluoromethyl)pyridin-4-yl)isothiazole-5-carboxamide]
> 2500 nM | Cc1cc(NC(=O)c2snc([C@@H]3CCOC3)c2C2CC2)ccn1 [I-201, (S)-4-cyclopropyl-N-(2-methylpyridin-4-yl)-3-(tetrahydrofuran-3-yl)isothiazole-5-carboxamide]
